# Source: patent publication US9023789B2, “Amylin analogs and pharmaceutical compositions thereof” (Novo Nordisk A/S, priority 2012, dated 2015)
# Where two headings read alike, the source gives them in different places. Numbered stars: 1 amine (or outer) side, 2 acyl side, 3 side chain; on linkers, the order of the positions; unused ones are H or OH. Bridge positions count the residues as written; N and C are the ends. Side chains are listed from the residue outwards. Peptide text beside a SMILES is read from it. * marks the point of attachment. C20 diacid = O=C(O)CCCCCCCCCCCCCCCCCCC(=O)*; γGlu = O=C(O)[C@H](CCC(=O)[*:2])N[*:1]
# Tests used:
# [1] = biological target: T1, human calcitonin (a) receptor in BHK570 cells (Homo sapiens, UniProt P30988); experiment: ASSAY (II)a functional assay, human calcitonin receptor (CRE luciferase); format: cell-based; settings: read-out: hCTR funct. EC50
# T1 construct: expressed in transfected cells
# T1 sequence (P30988 25-474): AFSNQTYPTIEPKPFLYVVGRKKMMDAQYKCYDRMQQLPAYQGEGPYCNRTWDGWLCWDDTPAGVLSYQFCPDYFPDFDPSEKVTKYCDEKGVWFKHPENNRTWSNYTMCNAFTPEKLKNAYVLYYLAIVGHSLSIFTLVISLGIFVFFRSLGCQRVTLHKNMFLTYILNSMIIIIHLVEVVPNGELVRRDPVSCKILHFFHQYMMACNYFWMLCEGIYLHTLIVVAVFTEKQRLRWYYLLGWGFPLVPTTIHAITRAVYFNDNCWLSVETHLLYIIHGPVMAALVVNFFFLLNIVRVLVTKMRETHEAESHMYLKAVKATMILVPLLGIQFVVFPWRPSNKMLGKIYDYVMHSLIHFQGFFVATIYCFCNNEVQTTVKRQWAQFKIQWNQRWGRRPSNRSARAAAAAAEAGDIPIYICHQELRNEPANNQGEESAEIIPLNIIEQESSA
# Source text: 1. Luciferase Assay Outline
# Activation of calcitonin and amylin (coexpression of calcitonin receptor and receptor activity modifying proteins (RAMP)) receptors lead to increased intracellular concentrations of cAMP. Consequently, transcription is activated by promoters containing multiple copies of the cAMP response element (CRE). It is thus possible to measure amylin activity by the use of a CRE luciferase reporter gene introduced into BHK cells also expressing calcitonin or amylin receptors.
# 2. Construction of Calcitonin (a)- and Amylin 3(a)-Receptor/CRE-Luc Cell Line.
# The cell line was further transfected with RAMP-3, using standard methods. This turns the calcitonin receptor into an amylin 3(a) receptor. Methotrexate, Neomycin, and Hygromycin are selection markers for luciferase, the calcitonin receptor, and RAMP-3, respectively.
# To perform activity assays, BHK calcitonin (a) receptor- or amylin 3(a)-receptor/CRE-luc cells were seeded in white 96 well culture plates at a density of about 20.000 cells/well. […] After incubation overnight at 37° C. and 5% CO2, the growth medium was replaced by 50 μl/well assay medium (DMEM (without phenol red), Glutamax™, 10% FBS, and 10 mM Hepes, pH 7.4). Further, 50 μl/well of standard or sample in assay buffer were added. After 3 hours incubation at 37° C. and 5% CO2, the assay medium with standard or sample were removed and replaced by 100 μl/well PBS. Further, 100 μl/well LucLite™ was added. The plates were sealed and incubated at room temperature for 30 minutes. Finally, luminescence was measured on a TopCounter (Packard) in SPC (single photon counting) mode.
# [2] = biological target: T2, human amylin receptor (membranes from Amylin 3(a)/CRE-luc cells) (Homo sapiens, UniProt O60896+P30988); experiment: ASSAY (V) binding to the human amylin receptor (SPA, 125I-rat amylin);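 also: competition binding of cell membranes (35 ng/µL) mixed with SPA beads in 384-well plates at 40 µL total volume, read by scintillation counting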
# T2 construct: expressed in transfected cells
# T2 sequence (P30988 25-474): T1 sequence (P30988 25-474)
# T2 sequence (O60896 24-148 partner): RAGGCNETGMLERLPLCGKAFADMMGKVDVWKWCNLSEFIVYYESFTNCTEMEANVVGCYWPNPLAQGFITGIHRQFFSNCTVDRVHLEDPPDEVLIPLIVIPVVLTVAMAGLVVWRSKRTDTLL
# [3] = biological target: T3, human amylin 3(a) receptor (human calcitonin receptor + RAMP-3) in BHK570 cells (Homo sapiens, UniProt O60896+P30988); experiment: ASSAY (II)a functional assay, human amylin receptor (CRE luciferase); format: cell-based; settings: for EC50: human amylin receptor functional potency, assay (II), read-out: hAmylin-R funct. EC50
# T3 construct: expressed in transfected cells
# How it was run: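 BHK CRE-luc cells, calcitonin (a) receptor ± RAMP-3 (amylin 3(a)); overnight seeding, 37° C/5% CO2. 3 h ligand exposure, DMEM/10% FBS/10 mM Hepes pH 7.4. LucLite 30 min RT; luminescence (SPC).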
# rat calcitonin receptor = biological target: T4, rat calcitonin receptor (Rattus norvegicus, UniProt P32214); experiment: ASSAY (VIII) binding to the rat calcitonin receptor; settings: Table 7, read-out: rCTR bind IC50
# T4 construct: expressed in transfected cells; host or cells: BHK tk'ts 13 (transient, FuGENE 6), membranes
# T4 sequence (P32214 25-479 isoform P32214-2 limits assumed): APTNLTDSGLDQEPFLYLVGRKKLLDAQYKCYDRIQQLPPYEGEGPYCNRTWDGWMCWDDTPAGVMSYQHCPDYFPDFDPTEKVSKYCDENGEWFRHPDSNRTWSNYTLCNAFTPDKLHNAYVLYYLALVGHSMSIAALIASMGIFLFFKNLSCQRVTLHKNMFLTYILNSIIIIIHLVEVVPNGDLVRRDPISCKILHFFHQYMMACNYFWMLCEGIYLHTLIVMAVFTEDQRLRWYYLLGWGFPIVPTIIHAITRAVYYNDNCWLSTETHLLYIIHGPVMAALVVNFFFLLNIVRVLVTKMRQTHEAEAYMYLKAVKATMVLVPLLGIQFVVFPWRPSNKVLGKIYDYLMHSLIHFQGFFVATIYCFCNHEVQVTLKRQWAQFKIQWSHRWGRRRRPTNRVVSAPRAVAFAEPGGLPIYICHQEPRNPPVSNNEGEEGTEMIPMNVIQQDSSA
# Protocol: Assay (VIII)—Determination of Binding to the Rat Calcitonin Receptor
# (§1) The BHK tk′ts 13 cells were transiently transfected with rat calcitonin receptor using FuGENE® 6 (Roche), according to the manufacturer's recommendations. Cells were grown in DMEM with 10% FBS and 1% Pen/Strep. Approximately 48 hours after transfection, the cells were harvested and membranes were prepared.
# [4] = ASSAY (IV) determination of solubility; format: physicochemical
# Protocol: Assay (IV)—Determination of Solubility
# The polypeptide was dissolved in water at −500 nmol/ml and mixed 1:1 with a series of buffers (100 mM glycylglycine pH 3.0, 100 mM glycylglycine pH 4.0, 100 mM glycylglycine pH 5.0, 100 mM bistrispropane pH 6.0, 100 mM bistrispropane pH 6.5, 100 mM bistrispropane pH 7.0, 100 mM bistrispropane pH 7.5, 100 mM bistrispropane pH 8.0). After 18 hours at room temperature the samples were centrifuged and the polypeptide concentration determined by UPLC.
# [5] = biological target: T5, rat amylin receptor (rat calcitonin receptor + rat RAMP 3) (Rattus norvegicus, UniProt P32214+Q9JJ73); experiment: ASSAY (VI) binding to the rat amylin receptor; settings: for IC50: binding to rat amylin receptor, read-out: rAmylin-R bind IC50
# T5 construct: expressed in transfected cells; host or cells: BHK tk'ts 13 (transient, FuGENE 6), membranes
# T5 sequence (P32214 25-479 isoform P32214-2 limits assumed): T4 sequence (P32214 25-479 isoform P32214-2 limits assumed)
# T5 sequence (Q9JJ73 23-147 partner): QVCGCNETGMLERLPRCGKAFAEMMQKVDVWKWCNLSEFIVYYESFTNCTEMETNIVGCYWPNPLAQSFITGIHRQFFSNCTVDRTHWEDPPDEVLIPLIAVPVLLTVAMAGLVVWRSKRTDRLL
# Protocol: as §1, with “Assay (VI)—Determination of the Binding to the Rat Amylin Receptor […] The” for “The”, “Cells were grown in DMEM with 10% FBS and 1% Pen/Strep.” left out
# [6] = biological target: T6, human calcitonin receptor (Homo sapiens, UniProt P30988); experiment: ASSAY (VII) binding to the human calcitonin receptor (SPA, 125I-Calcitonin); settings: read-out: hCTR bind IC50;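 also: cell membranes (35 ng/µL) combined with SPA beads in 40 µL of pH 7.4 Hepes buffer, 384-well format, signal counted on a TopCounter instrument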
# T6 construct: expressed in transfected cells
# T6 sequence (P30988 25-474): T1 sequence (P30988 25-474)
# [7] = Table 5, selectivity, hCTR bind IC50 / hAmylin-R bind IC50
# [8] = Table 7, human binding selectivity, included for comparison
# [9] = human functional selectivity: hCTR funct. EC50 / hAmylin-R funct. EC50
# [10] = Table 7, rat binding selectivity, rCTR IC50 / rAmylin-R IC50
smiles,measurement,setting,value
CC(C)C[C@H](NC(=O)[C@H](CCCNC(=N)N)NC(=O)[C@H](CCC(N)=O)NC(=O)[C@@H](NC(=O)[C@H](C)NC(=O)[C@@H]1CSSC[C@H](NC(=O)[C@@H](N)CCCCNC(=O)CC[C@H](NC(=O)CC[C@H](NC(=O)CCCCCCCCCCCCCCCCCCC(=O)O)C(=O)O)C(=O)O)C(=O)N[C@@H](CC(N)=O)C(=O)N[C@@H]([C@@H](C)O)C(=O)N[C@@H](C)C(=O)N[C@@H]([C@@H](C)O)C(=O)N1)[C@@H](C)O)C(=O)N[C@@H](C)C(=O)N[C@@H](CC(=O)O)C(=O)N[C@@H](Cc1ccccc1)C(=O)N[C@@H](CC(C)C)C(=O)N[C@@H](CCCNC(=N)N)C(=O)N[C@@H](Cc1c[nH]cn1)C(=O)N[C@@H](CO)C(=O)N[C@@H](CO)C(=O)N[C@@H](CC(N)=O)C(=O)N1CCC[C@H]1C(=O)N[C@@H](Cc1ccccc1)C(=O)NCC(=O)N[C@@H](C)C(=O)N1CCC[C@H]1C(=O)N[C@@H](CC(C)C)C(=O)N[C@@H](CO)C(=O)N[C@@H](CO)C(=O)N[C@H](C(=O)N[C@@H](CC(N)=O)C(=O)N[C@H](C(=O)NCC(=O)N[C@@H](CO)C(=O)N[C@@H](CC(=O)O)C(=O)N[C@H](C(=O)N[C@@H](Cc1ccc(O)cc1)C(N)=O)[C@@H](C)O)C(C)C)[C@@H](C)O [Example 3] (H-K([γGlu-γGlu-C20 diacid])CNTATCATQRLADFLRHSSNPFGAPLSSTNVGSDTY-NH2; disulfide 2-7; N-terminus assumed),EC50,[1],1.38 nM
same,Ratio hCT/hAmylin binding,[2]; [7],17.3
same,Ratio hCT/hAmylin binding,"[2]; Table 5a, selectivity, hCTR bind IC50 / hAmylin-R bind IC50",17.3
same,Ratio hCT/hAmylin binding,"[2]; Table 5b, selectivity, hCTR bind IC50 / hAmylin-R bind IC50",17.3
same,Ratio hCT/hAmylin binding,[2]; [8],17.3
same,Ratio hCT/hAmylin binding,"[2]; Table 7a (preferred compounds), human binding selectivity, included for comparison",17.3
same,Ratio hCT/hAmylin binding,[2]; ratio of human calcitonin receptor binding IC50 to human amylin receptor binding IC50,17.3
same,EC50,[3],0.205 nM
same,Ratio hCT/hAmylin funct.,[3]; [9],6.7
same,IC50,rat calcitonin receptor,16.7 nM
same,solubility at 18 h,"[4]; bistrispropane buffer, pH 6.5, read-out: Solubility pH 6.5 Concentration",≥ 200 µM
same,solubility at 18 h,"[4]; bistrispropane buffer, pH 7.5, read-out: Solubility pH 7.5 Concentration",≥ 200 µM
same,solubility at 18 h,"[4]; bistrispropane buffer, pH 6.0, read-out: Solubility pH 6.0 Concentration",189 µM
same,solubility at 18 h,"[4]; bistrispropane buffer, pH 7.0, read-out: Solubility pH 7.0 Concentration",195 µM
same,solubility at 18 h,"[4]; bistrispropane buffer, pH 8.0, read-out: Solubility pH 8.0 Concentration",≥ 200 µM
same,solubility at 18 h,"[4]; glycylglycine buffer, pH 3.0, read-out: Solubility pH 3.0 Concentration",≥ 200 µM
same,solubility at 18 h,"[4]; glycylglycine buffer, pH 4.0, read-out: Solubility pH 4.0 Concentration",96 µM
same,solubility at 18 h,"[4]; glycylglycine buffer, pH 5.0, read-out: Solubility pH 5.0 Concentration",141 µM
same,IC50,[5]; Table 7,1 nM
same,Ratio rCT/rAmylin binding,[5]; [10],16.7
same,Ratio rCT/rAmylin binding,"[5]; Table 7a (preferred compounds), rat binding selectivity, rCTR IC50 / rAmylin-R IC50",16.7
same,Ratio rCT/rAmylin binding,[5]; ratio of rCTR bind IC50 to rAmylin-R bind IC50,16.7
CC[C@H](C)[C@H](NC(=O)[C@@H]1CCCN1C(=O)CNC(=O)[C@H](Cc1ccccc1)NC(=O)[C@H](CC(N)=O)NC(=O)[C@@H]1CCCN1C(=O)[C@H](CO)NC(=O)[C@H](CO)NC(=O)[C@H](Cc1c[nH]cn1)NC(=O)[C@H](CCCNC(=N)N)NC(=O)[C@H](CC(C)C)NC(=O)[C@H](Cc1ccccc1)NC(=O)[C@H](CCC(=O)O)NC(=O)[C@H](C)NC(=O)[C@H](CC(C)C)NC(=O)[C@H](CCCNC(=N)N)NC(=O)[C@H](CCC(N)=O)NC(=O)[C@@H](NC(=O)[C@H](C)NC(=O)[C@@H]1CSSC[C@H](NC(=O)[C@H](CCCCN)NC(=O)CC[C@H](NC(=O)CCCCCCCCCCCCCCCCCCC(=O)O)C(=O)O)C(=O)N[C@@H](CC(N)=O)C(=O)N[C@@H]([C@@H](C)O)C(=O)N[C@@H](C)C(=O)N[C@@H]([C@@H](C)O)C(=O)N1)[C@@H](C)O)C(=O)N[C@@H](CC(C)C)C(=O)N1CCC[C@H]1C(=O)N1CCC[C@H]1C(=O)N[C@H](C(=O)N[C@@H](CC(N)=O)C(=O)N[C@H](C(=O)NCC(=O)N[C@@H](CO)C(=O)N[C@@H](CC(N)=O)C(=O)N[C@H](C(=O)N1CCC[C@H]1C(N)=O)[C@@H](C)O)C(C)C)[C@@H](C)O [Example 4] ({C20 diacid-γGlu}-KCNTATCATQRLAEFLRHSSPNFGPILPPTNVGSNTP-NH2; disulfide 2-7),IC50,[6],0.688 nM
same,EC50,[1],0.07 nM
same,IC50,"[2]; Table 4, read-out: hAmylin-R bind IC50",0.321 nM
same,Ratio hCT/hAmylin binding,[2]; [7],2.1
same,Ratio hCT/hAmylin binding,[2]; [8],2.1
same,Ratio hCT/hAmylin funct.,[3]; hCTR funct. EC50 / hAmylin-R funct. EC50,1.2
same,Ratio hCT/hAmylin funct.,[3]; hCTR funct. EC50 over hAmylin-R funct. EC50,1.2
same,EC50,[3],0.06 nM
same,Ratio hCT/hAmylin funct.,[3]; [9],1.2
same,IC50,[5]; Table 7,1.3 nM
same,Ratio rCT/rAmylin binding,[5]; [10],3.1
